Measurements reported in patent US20240374743A1, “BLETILLA STRIATA POLYSACCHARIDE IRON COMPLEX, PREPARATION METHOD THEREFOR AND USE THEREOF” (priority 2023, published 2024).

Tested on: mouse model of iron deficiency anemia
Assay: Anti-iron deficiency anemia test in mice
Type: in vivo, ICR mice
Method: Experimental animals: 35 ICR mice, clean grade, body weight 20-25 g, female.
Establishment of a mouse model of iron deficiency anemia: All mice were kept in a stainless steel cage, in which wood dust was used as padding to prevent iron from other sources from affecting the experimental results. The mice were adaptively fed at room temperature (24±1° C.) and humidity 50% for 3 days and then randomly divided into 7 groups, with 5 mice in each group. Five mice fed with basal feed (Fe>100 mg kg^−1) were used as a blank control group, and the remaining 30 mice were given a low-iron diet (Fe: 10 mg·kg^−1, AIN93 standard) and randomly divided into a model group (Model), a positive drug (Niferex) group, a ferrous sulfate (FeSO4) group, and low-dose, medium-dose and high-dose groups of the Bletilla striata polysaccharide-iron (III) complex prepared in Example 4. After adaptive feeding, 0.1 mL of blood was taken from the cheeks of all mice, and the routine blood test data, serum iron three-term test data, and other data were determined by using a blood cell analyzer and used as normal values before modeling. Blood was drawn from the cheek of each mouse twice a week, but the blood was not collected. The mice in each group got free access to water. After three consecutive weeks of feeding, 0.2 mL of blood was collected from the cheeks of the mice in each group and then measured for various hematological indexes, and the body weight changes were recorded and plotted. […] Mice that failed in modeling were excluded and were not included in any drug group.
Method of administration: Mice were administered by gavage at 8 am every day for 28 consecutive days. During gavage, the mice in each group got free access to water and fed normal diet. The mice in the blank control group and the model control group were given the same volume of distilled water, the mice in the positive drug group were given a drug with an Fe content of 0.039 mg/kg, the mice in FeSO4 group were given a drug with an Fe content of 0.039 mg/kg, and the mice in the low-dose, medium-dose and high-dose groups of the Bletilla striata polysaccharide-iron (III) complex were given drugs with Fe contents of 0.0195 mg/kg, 0.039 mg/kg, and 0.078 mg/kg, respectively. Except the blank control group, the other six groups were given a low-iron feed. The body weight was weighed, recorded, and plotted once a week, and the animal state was observed.
Sample collection: After the last administration by gavage, the mice in each group got free access to water for 12 hours and sacrificed, whole blood was collected from the heart to determine various biochemical indexes, including hemoglobin content (Hb) in red blood cells, red blood cell count (RBC), hematocrit (HCT), mean corpuscular volume (MCV), mean corpuscular hemoglobin content (MCH), mean corpuscular hemoglobin concentration (MCHC), red blood cell volume distribution width (RDW), serum iron (SI) content, total iron binding capacity (TIBC), and erythropoietin (EPO). Liver and spleen tissues were taken, weighed, and recorded, and the organ index was calculated. The organ coefficient was calculated according to the following equation, and a histogram was plotted for analysis: […]

[1] = Fe 0.039 mg/kg (medium-dose group), gavage 28 days
[2] = gavage 28 days, complex low-, medium- and high-dose groups, Niferex and FeSO4 Fe 0.039 mg/kg

ferrous sulfate [FeSO4]
HCT [1]: 0.29 ± 0.05 | MCH [1]: 17.83 ± 0.63 | MCHC [1]: 400.49 ± 16.03 | MCV [1]: 51.20 ± 2.07 | RBC value [1]: 6.85 10^12/L | RDW [1]: 25.56 ± 2.99 | effect on EPO compared with model group (Fe 0.039 mg/kg, gavage 28 days): no regulatory effect on EPO | liver index compared with model group (Fe 0.039 mg/kg, gavage 28 days): not strong | body weight after 28 days of administration (comparison between groups) (Fe 0.039 mg/kg, gavage daily 28 days): extremely significantly different from that in the control group | Hb value compared with control group [2]: not significantly different from that in the control group | effect on total iron binding capacity (TIBC) [2]: best effect
